# Measured values reported in the supplement of paper PMC10307832.
# Key:
# Assay in all cases: relative viability (nuclei count vs DMSO), 5 days (fraction); higher = more cells survive
# Crizotinib + Phenformin = compound: C[C@@H](Oc1cc(-c2cnn(C3CCNCC3)c2)cnc1N)c1c(Cl)ccc(F)c1Cl [Crizotinib] + N=C(N)NC(=N)NCCc1ccccc1 [Phenformin] (partner 250 µM)
# Summary of the method: (§1)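 Cells from lung cancer lines were seeded into 1536-well plates and, one day later, dosed by pin tool. Treatments were either a single drug or a fixed dose of an anchor drug with five library-drug doses (not always all listed) in √10 steps. After 5 days, nuclei were stained in a one-step fixation (final 0.05% Triton X-100, 1% formaldehyde, 1 ug/ml Hoechst) and counted on 4× images, and relative viability is the treated-to-vehicle nuclei ratio, as the median of duplicate plates.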
# Carfilzomib + Trametinib = compound: CC(C)C[C@H](NC(=O)[C@H](CCc1ccccc1)NC(=O)CN1CCOCC1)C(=O)N[C@@H](Cc1ccccc1)C(=O)N[C@@H](CC(C)C)C(=O)[C@@]1(C)CO1 [Carfilzomib] + CC(=O)Nc1cccc(-n2c(=O)n(C3CC3)c(=O)c3c(Nc4ccc(I)cc4F)n(C)c(=O)c(C)c32)c1 [Trametinib] (partner 0.02 µM)
# Summary of the method: as §1
# Olaparib + Luminespib = compound: O=C(c1cc(Cc2n[nH]c(=O)c3ccccc23)ccc1F)N1CCN(C(=O)C2CC2)CC1 [Olaparib] + CCNC(=O)c1noc(-c2cc(C(C)C)c(O)cc2O)c1-c1ccc(CN2CCOCC2)cc1 [Luminespib] (partner 0.01 µM)
# Summary of the method: as §1
# Olaparib + AZD7762 = compound: O=C(c1cc(Cc2n[nH]c(=O)c3ccccc23)ccc1F)N1CCN(C(=O)C2CC2)CC1 [Olaparib] + NC(=O)Nc1cc(-c2cccc(F)c2)sc1C(=O)N[C@H]1CCCNC1 [AZD7762] (partner 0.2 µM)
# Summary of the method: as §1
Cell Line,relative viability (Crizotinib + Phenformin; first compound 0.01 µM),relative viability (Crizotinib + Phenformin; first compound 0.03162 µM),relative viability (Crizotinib + Phenformin; first compound 0.1 µM),relative viability (Crizotinib + Phenformin; first compound 0.3162 µM),relative viability (Crizotinib + Phenformin; first compound 1 µM),relative viability (Carfilzomib + Trametinib; first compound 0.003162 µM),relative viability (Carfilzomib + Trametinib; first compound 0.01 µM),relative viability (Carfilzomib + Trametinib; first compound 0.03162 µM),relative viability (Carfilzomib + Trametinib; first compound 0.1 µM),relative viability (Olaparib + Luminespib; first compound 0.08 µM),relative viability (Olaparib + Luminespib; first compound 0.253 µM),relative viability (Olaparib + Luminespib; first compound 2.53 µM),relative viability (Olaparib + Luminespib; first compound 8 µM),relative viability (Olaparib + AZD7762; first compound 0.08 µM),relative viability (Olaparib + AZD7762; first compound 0.253 µM),relative viability (Olaparib + AZD7762; first compound 2.53 µM),relative viability (Olaparib + AZD7762; first compound 8 µM),relative viability (Carfilzomib + Trametinib; first compound 0.001 µM)
NCI-H1395,0.435,0.464,0.493,0.427,0.382,0.997,1.11,0.566,0.344,0.633,0.533,0.62,0.447,0.429,0.334,0.384,0.359,
NCI-H1437,0.278,0.306,0.3,0.272,0.345,0.568,0.637,0.312,0.194,1.26,1.08,1.06,0.809,1.19,1.11,1.15,0.997,0.497
NCI-H1651,0.294,0.356,0.292,0.287,0.336,0.9,0.794,0.304,0.119,0.798,0.605,0.431,0.216,0.486,0.424,0.363,0.184,0.79
NCI-H1666,0.514,0.598,0.583,0.558,0.546,0.852,0.988,0.72,0.513,1.1,0.879,0.889,0.697,0.892,0.725,0.781,0.835,0.907
NCI-H1734,0.358,0.368,0.385,,0.367,0.785,0.627,0.641,0.152,0.212,0.205,0.185,0.183,0.611,0.49,0.441,0.333,0.67
NCI-H1755,0.593,0.681,0.643,0.527,0.569,0.837,0.668,0.769,0.511,0.743,0.411,0.41,0.418,0.452,0.451,0.489,0.399,0.809
NCI-H1792,,0.357,0.314,,0.328,0.456,0.451,0.396,0.174,0.484,0.359,0.409,0.425,0.774,0.559,0.496,0.254,
NCI-H1915,0.382,0.377,0.367,,0.359,0.302,0.295,0.289,0.106,0.685,0.575,0.408,0.387,0.544,0.561,0.404,0.245,0.266
NCI-H1944,0.19,0.194,0.189,0.195,0.198,0.464,0.398,0.473,0.202,0.741,0.625,0.534,0.534,0.511,0.729,0.43,0.383,0.457
